{
  "source": "patent US8987201B2",
  "about": "“Black bear parathyroid hormone and methods of using black bear parathyroid hormone” (Michigan Technological University, priority 2009, dated 2015)",
  "key": {"[1]": {"tested_on": "men and women with age-related osteoporosis", "conditions": "20-30% of cortical and cancellous bone lost; cited from earlier work"}, "rats": {"tested_on": "rats", "conditions": "cited from earlier work"}, "MC3T3 subclone 4 cells": {"tested_on": "MC3T3 subclone 4 cells", "experiment": "PTH attenuation of serum-starvation induced caspase-3/7 activity", "assay_type": "cell-based, mouse", "conditions": "all concentrations pooled; bbPTH 1-34 vs hPTH 1-34 p=0.006, vs either PTH 1-84 p≦0.018; bbPTH 1-84 vs hPTH 1-84 p=0.090", "protocol": "MC3T3 subclone 4 cells (ATCC, CRL-2593) were maintained in standard culture media (89% alpha-minimum essential media, 1% penicillin/streptomycin, and 10% FBS) at 37° C. in 5% CO2. Cells were not used beyond passage 30.\nMC3T3 cells were seeded at a density of 20,000 cells/well in 96-well plates and allowed to attach overnight. Culture media was then aspirated and replaced with 100 μl of culture media containing 10% FBS and either vehicle (PBS) or PTH (10-100 nM) for one hour, after which media was aspirated and cells were washed with PBS to remove residual serum. To induce apoptosis, cells were incubated in control or serum-free media for 6 hours. Replacement media contained 89% alpha-minimum essential media, 1% penicillin/streptomycin, and either 10% FBS (control media) or 0% FBS (starvation media). After starvation, media was aspirated, cells were washed with PBS, and 50 μl of fresh PBS was added to each well. Caspase-3/7 activity was determined by cleavage of a DEVD substrate (Caspase-Glo 3/7 Assay, #G8093, Promega Corporation). Measured luminescence values were fit to a standard curve prepared with known concentrations of recombinant human caspase-3 (#SE-169, BIOMOL Research Laboratories Inc.). Five wells of each treatment were run per 96-well plate, and procedures were repeated on a minimum of 10 plates. […]"}, "[2]": {"tested_on": "human fetal osteoblasts (hFOB)", "experiment": "Serum starvation cell death in human fetal osteoblasts (trypan blue)", "assay_type": "cell-based", "conditions": "100 nM for 1 hour before serum starvation for 24 hours, preliminary studies, p<0.0001", "protocol": "All PTH peptides used in the current study attenuated apoptotic signaling induced by serum starvation in vitro (FIG. 19). bbPTH 1-34 reduced apoptotic signaling in pre-osteoblastic cells more than human PTH (FIG. 19). Recently, we found similar results with preliminary studies in human fetal osteoblasts (hFOB). Serum starvation for 24 hours increased cell death in hFOB (confirmed via trypan blue staining), but pretreatment of hFOB cells with 100 nM PTH 1-34 or 1-84 for 1 hour before starvation reduced percent cell death (percentage change in cell death compared to vehicle pretreatment, hPTH 1-34: −18%, bbPTH 1-34: −25%, hPTH 1-84: −17%, bbPTH 1-84: −21%; p<0.0001; data not shown). […] However, although bbPTH 1-84 was less anti-apoptotic than bbPTH 1-34 and hPTH 1-34 in vitro (FIG. 19) it caused the greatest increases in cortical and trabecular bone mass in the in vivo studies (Table 1, Table 2)."}, "Male Swiss-Webster mice [3]": {"tested_on": "Male Swiss-Webster mice", "experiment": "Trabecular bone structure and mineralization in the proximal tibia (micro-computed tomography)", "assay_type": "in vivo, mouse", "conditions": "PTH 1-84 study: 12 wk old mice, 8 weeks, proximal tibia, normalized by body mass", "from_the_text": "(§1) All handling procedures and experiments were approved by the Michigan Technological University Institutional Animal Care and Use Committees. Male Swiss-Webster mice were obtained from a commercial breeder (Harlan, Indianapolis, Ind.). All animals were maintained on a 12-h light/12-h dark cycle, and were permitted free access to water and food containing 0.95% calcium (Purina Rodent Diet #5001).\n(§2) In the first experiment, 11 wk old mice received daily (5 days/week) subcutaneous injections of 2.5 nmol/kg PTH 1-34 (hPTH 1-34 or bbPTH 1-34) or acidic saline vehicle (0.15 M NaCl+0.001 N HCl) for 8 weeks (n=10 mice/group). In the second experiment, 12 wk old mice received daily (5 days/week) subcutaneous injections of 2.5 nmol/kg PTH 1-84 (hPTH 1-84 or bbPTH 1-84) or acidic saline vehicle for 8 weeks (n=10 mice/group). All PTH- and vehicle-treated animals received subcutaneous injections of calcein at a dosage of 10 mg/kg on days 12 and 3 before death to label mineralizing bone surfaces. Twenty-four hours following the last treatment injection, mice were sacrificed by carbon dioxide asphyxiation. Right femurs were fixed in 10% neutral buffered formalin. Left femurs were wrapped in 0.15M saline soaked gauze and stored at −20 deg C. Left tibias were stored in 70% ethanol at 4 deg C.\nTrabecular bone architecture and mineralization were evaluated in the left proximal tibial metaphysis (0.7 mm distal to the growth plate) using micro-computed tomography. Tibias from experiment 1 were scanned on a μCT35 scanner (Scanco Medical AG, Basserdorf, Switzerland) at 3.5 μm (high) resolution. Tibias from experiment 2 were scanned on a μCT40 scanner (Scanco Medical AG, Basserdorf, Switzerland) at 7 μm (high) resolution. Bones were scanned in 70% ethanol. Trabecular bone volume fraction (BV/TV, %), trabecular number (Tb.N, mm^−1), trabecular thickness (Tb.Th, m), trabecular separation (Tb.Sp, m), trabecular apparent mineral density (App.Mn.Dn, mgHA/cm^3) and trabecular tissue mineral density (Mat.Mn.Dn, mgHA/cm^3) were computed using the manufacturer's software.\n(§3) All bone geometrical, architectural, and mineral properties were normalized by body mass to account for potential variation in animal size (31-33). Trabecular bone properties quantified by micro-computed tomography were compared by ANOVA between vehicle, bear, and human PTH-treated mice within each study (PTH 1-34 or PTH 1-84). The microCT parameters were not directly compared between the PTH 1-34 and PTH 1-84 studies because analyses were conducted on different microCT machines. For all other bone properties, all six experimental groups (from both the PTH 1-34 and PTH 1-84 studies) were compared with ANOVA and Fisher's PLSD. A significance of p<0.05 was used for all comparisons."}, "Male Swiss-Webster mice [4]": {"tested_on": "Male Swiss-Webster mice", "experiment": "Cortical bone mineral content (ash fraction) and geometrical properties of the femur", "assay_type": "in vivo, mouse", "conditions": "femoral midshaft, 2.5 nmol/kg s.c., 8 weeks, normalized by body mass, SD in parentheses", "from_the_text": "as §1, §2\n(§4) Following the bending test, the left femoral diaphyses were ashed in a furnace to determine mineral content (ash fraction). Right femoral diaphyses were embedded in methyl methacrylate and sectioned with a diamond saw to expose the midshaft cross-section. Images of the midshaft cross-sections were captured using a digital camera (Spot Insight QE, Diagnostic Instruments Inc., Sterling Heights, Mich.), and Scion Image analysis software (Scion Corporation, Frederick, Md.) was used to calculate the periosteal area (Ps.Ar), cortical area (Ct.Ar), and endosteal area (Es.Ar) for each sample. Cortical bone thickness (Ct.Th) was calculated in 0.1 mm increments for each anatomical quadrant and for the entire cross-section using image analysis software (Bioquant Osteo, Nashville, Tenn.). Thin sections from the midshaft of the right femur were ground to a thickness of 50 μm and mounted on glass slides. Images of calcein labels were captured at 100× magnification and periosteal and endosteal mineral apposition rates (Ps.MAR and Es.MAR, respectively) and mineralizing surfaces (Ps.MS/BS and Es.MS/MS) were quantified (Bioquant) for each femur.\nas §3"}, "Male Swiss-Webster mice [5]": {"tested_on": "Male Swiss-Webster mice", "experiment": "Cortical bone dynamic histomorphometry in the femur (calcein labels)", "assay_type": "in vivo, mouse", "conditions": "femoral midshaft, 2.5 nmol/kg s.c., 8 weeks, SD in parentheses", "from_the_text": "as §1, §2, §4, §3"}, "[6]": {"tested_on": "ovariectomized (OVX) Sprague-Dawley rats", "experiment": "In vivo effects of human PTH1-84 and bear PTH1-84 in ovariectomized rats", "set-up": "species or system rat", "conditions": "2.5 nmol/kg s.c., eight weeks", "protocol": "Thirty female, 2.5-month old Sprague-Dawley rats were ovariectomized (OVX) at the commercial breeding facility The OVX animals were randomly assigned into 3 groups of 10 animals per group for further experiments.\nSix weeks after the OVX procedure, the rats were injected subcutaneously for an eight-week period (daily for five days per week) with vehicle (saline) or 2.5 nmol/kg bear or human PTH1-84. Animals were euthanized 24 hours after the last injection. Samples were obtained from the euthanized animals for further analysis.\nFemur bending strength and proximal tibia trabecular architecture were investigated as described in Example 12."}, "procollagen-1 mRNA": {"tested_on": "procollagen-1 mRNA", "conditions": "Nasu et al., 1998; cited from earlier work"}},
  "note": "Marks after values point to notes of the source that are not given here.",
  "data": [
    {"substance": "ALX1-11: recombinant human PTH 1-84 (NPS Pharmaceuticals), under consideration for approval by the FDA", "values": [
      {"measurement": "bone recovered during the suggested treatment regimen", "setting": "[1]", "value": 8, "unit": "%"},
      {"measurement": "osteosarcoma in rats", "setting": "rats; long-term usage", "value": "generates osteosarcoma"}
    ]},
    {"substance": "human PTH1-84 [hPTH 1-84]", "values": [
      {"measurement": "caspase-3/7 activity, comparison between peptide groups", "setting": "MC3T3 subclone 4 cells", "value": "lower levels of apoptosis"},
      {"measurement": "percentage change in cell death compared to vehicle pretreatment", "setting": "[2]", "value": "−17", "unit": "%"},
      {"measurement": "BV/TV", "setting": "Male Swiss-Webster mice [3]; 2.5 nmol/kg s.c. daily 5 days/week", "value": 1.34, "unit": "%/kg"},
      {"measurement": "App. Mn. Dn", "setting": "Male Swiss-Webster mice [3]; 2.5 nmol/kg s.c.", "value": "2513 ^b mgHA/(cm^3*kg)"},
      {"measurement": "Mat. Mn. Dn.", "setting": "Male Swiss-Webster mice [3]; 2.5 nmol/kg s.c.", "value": "29810 mgHA/(cm^3*kg)"},
      {"measurement": "Tb. N", "setting": "Male Swiss-Webster mice [3]; 2.5 nmol/kg s.c.", "value": "98.7 1/mm*kg"},
      {"measurement": "Tb. Sp", "setting": "Male Swiss-Webster mice [3]; 2.5 nmol/kg s.c.", "value": 9.57, "unit": "mm/kg"},
      {"measurement": "Tb. Th", "setting": "Male Swiss-Webster mice [3]; 2.5 nmol/kg s.c.", "value": 1.26, "unit": "mm/kg"},
      {"measurement": "Ct.Ar", "setting": "Male Swiss-Webster mice [4]", "value": "29.0 (3.7) mm^2/kg"},
      {"measurement": "Ct.Th", "setting": "Male Swiss-Webster mice [4]", "value": "3.41 (0.59)^a mm/kg"},
      {"measurement": "Es.Ar", "setting": "Male Swiss-Webster mice [4]", "value": "25.6 (3.3) mm^2/kg"},
      {"measurement": "Ps.Ar", "setting": "Male Swiss-Webster mice [4]", "value": "54.6 (4.4)^b,c mm^2/kg"},
      {"measurement": "Endosteal MAR", "setting": "Male Swiss-Webster mice [5]", "value": "0.62 ( ).39)"},
      {"measurement": "Endosteal MS/BS", "setting": "Male Swiss-Webster mice [5]", "value": "32.1 (19.4)"},
      {"measurement": "Periosteal MAR", "setting": "Male Swiss-Webster mice [5]", "value": "0.60 (0.40)"},
      {"measurement": "Periosteal MS/BS", "setting": "Male Swiss-Webster mice [5]", "value": "20.2 (16.7)"},
      {"measurement": "bone volume fraction / trabecular bone volume", "setting": "[6]", "value": "equivalently increase"},
      {"measurement": "production of procollagen-1 mRNA", "setting": "procollagen-1 mRNA", "value": "does not"},
      {"measurement": "rate of carcinogenicity compared to human PTH 1-34", "setting": "rats; rat, in vivo", "value": "lower rate of carcinogenicity"}
    ]}
  ]
}
